# Data as given in PubChem BioAssay (NCI).
#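 A five-concentration, 48-hour dose response in 96-well plates underlies each endpoint, interpolated linearly between surrounding concentrations. The concentration for 50% growth inhibition is given as GI50. The concentration for full growth arrest is given as TGI.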
# Experiments:
# Test in all cases: inhibition of tumour cell growth, NCI panel, 48 h
# KM12 colon = tested on: KM12 colon
# IGROV1 ovarian = tested on: IGROV1 ovarian
# SR leukemia = tested on: SR leukemia
# DU-145 prostate = tested on: DU-145 prostate
# NCI/ADR-RES ovarian = tested on: NCI/ADR-RES ovarian
# MOLT-4 leukemia = tested on: MOLT-4 leukemia
# HOP-92 NSCLC = tested on: HOP-92 NSCLC
# SF-268 CNS = tested on: SF-268 CNS
# HS 578T breast = tested on: HS 578T breast
# NCI-H522 lung = tested on: NCI-H522 lung
# TK-10 renal = tested on: TK-10 renal
# NCI-H23 lung = tested on: NCI-H23 lung
# 786-0 renal = tested on: 786-0 renal
# OVCAR-4 ovarian = tested on: OVCAR-4 ovarian
# SNB-19 CNS = tested on: SNB-19 CNS
# RPMI-8226 leukemia = tested on: RPMI-8226 leukemia
# HL-60(TB) leukemia = tested on: HL-60(TB) leukemia
# MCF7 breast = tested on: MCF7 breast
# BT-549 breast = tested on: BT-549 breast
# CCRF-CEM leukemia = tested on: CCRF-CEM leukemia
# OVCAR-3 ovarian = tested on: OVCAR-3 ovarian
# PC-3 prostate = tested on: PC-3 prostate
# NCI-H460 lung = tested on: NCI-H460 lung
# ACHN renal = tested on: ACHN renal
# CAKI-1 renal = tested on: CAKI-1 renal
# UO-31 renal = tested on: UO-31 renal
# A549 NSCLC = tested on: A549 NSCLC
# SK-MEL-2 melanoma = tested on: SK-MEL-2 melanoma
# OVCAR-8 ovarian = tested on: OVCAR-8 ovarian
# A498 renal = tested on: A498 renal
# HCC-2998 colon = tested on: HCC-2998 colon
# UACC-62 melanoma = tested on: UACC-62 melanoma
# SK-OV-3 ovarian = tested on: SK-OV-3 ovarian
# SNB-75 CNS = tested on: SNB-75 CNS
# RXF 393 renal = tested on: RXF 393 renal
# COLO 205 colon = tested on: COLO 205 colon
# MDA-MB-435 = tested on: MDA-MB-435
# M14 melanoma = tested on: M14 melanoma
# MALME-3M melanoma = tested on: MALME-3M melanoma
# SW-620 colon = tested on: SW-620 colon
# U251 CNS = tested on: U251 CNS
# SK-MEL-28 melanoma = tested on: SK-MEL-28 melanoma
# OVCAR-5 ovarian = tested on: OVCAR-5 ovarian
# K-562 leukemia = tested on: K-562 leukemia
# HOP-62 NSCLC = tested on: HOP-62 NSCLC
# T-47D breast = tested on: T-47D breast
# SK-MEL-5 melanoma = tested on: SK-MEL-5 melanoma
# EKVX NSCLC = tested on: EKVX NSCLC
# SN12C renal = tested on: SN12C renal
# MDA-MB-231 breast = tested on: MDA-MB-231 breast
compound,measurement,setting,value
c1ccc(Cn2cnc3ccc(-c4nc(-c5ccc6c(c5)ncn6C5CCCCC5)cn5ccnc45)cc32)cc1,GI50,KM12 colon,2.08 µM
same,TGI,KM12 colon,4.93 µM
same,GI50,IGROV1 ovarian,2.14 µM
same,TGI,IGROV1 ovarian,> 100 µM
same,GI50,SR leukemia,1.68 µM
same,TGI,SR leukemia,> 100 µM
same,GI50,DU-145 prostate,3.04 µM
same,TGI,DU-145 prostate,21 µM
same,GI50,NCI/ADR-RES ovarian,1.98 µM
same,TGI,NCI/ADR-RES ovarian,5.43 µM
same,GI50,MOLT-4 leukemia,1.67 µM
same,TGI,MOLT-4 leukemia,> 100 µM
same,GI50,HOP-92 NSCLC,1.25 µM
same,TGI,HOP-92 NSCLC,2.62 µM
same,GI50,SF-268 CNS,2.48 µM
same,TGI,SF-268 CNS,> 100 µM
same,GI50,HS 578T breast,2.71 µM
same,TGI,HS 578T breast,> 100 µM
same,GI50,NCI-H522 lung,2.03 µM
same,TGI,NCI-H522 lung,5.09 µM
same,GI50,TK-10 renal,3.52 µM
same,TGI,TK-10 renal,> 100 µM
same,GI50,NCI-H23 lung,1.88 µM
same,TGI,NCI-H23 lung,4.49 µM
same,GI50,786-0 renal,0.799 µM
same,TGI,786-0 renal,> 100 µM
same,GI50,OVCAR-4 ovarian,3.06 µM
same,TGI,OVCAR-4 ovarian,> 100 µM
same,GI50,SNB-19 CNS,4.54 µM
same,TGI,SNB-19 CNS,> 100 µM
same,GI50,RPMI-8226 leukemia,1.15 µM
same,TGI,RPMI-8226 leukemia,4.5 µM
same,GI50,HL-60(TB) leukemia,2.88 µM
same,TGI,HL-60(TB) leukemia,6.65 µM
same,GI50,MCF7 breast,2.72 µM
same,TGI,MCF7 breast,> 100 µM
same,GI50,BT-549 breast,1.2 µM
same,TGI,BT-549 breast,2.68 µM
same,GI50,CCRF-CEM leukemia,2.18 µM
same,TGI,CCRF-CEM leukemia,> 100 µM
same,GI50,OVCAR-3 ovarian,2.27 µM
same,TGI,OVCAR-3 ovarian,5.8 µM
same,GI50,PC-3 prostate,1.97 µM
same,TGI,PC-3 prostate,7.55 µM
same,GI50,NCI-H460 lung,2.3 µM
same,TGI,NCI-H460 lung,5.66 µM
same,GI50,ACHN renal,3.08 µM
same,TGI,ACHN renal,> 100 µM
same,GI50,CAKI-1 renal,2.45 µM
same,TGI,CAKI-1 renal,> 100 µM
same,GI50,UO-31 renal,1.72 µM
same,TGI,UO-31 renal,4.55 µM
same,GI50,A549 NSCLC,2.33 µM
same,TGI,A549 NSCLC,4.97 µM
same,GI50,SK-MEL-2 melanoma,2.02 µM
same,TGI,SK-MEL-2 melanoma,4.85 µM
same,GI50,OVCAR-8 ovarian,2.6 µM
same,TGI,OVCAR-8 ovarian,6.54 µM
same,GI50,A498 renal,1.86 µM
same,TGI,A498 renal,3.57 µM
same,GI50,HCC-2998 colon,1.9 µM
same,TGI,HCC-2998 colon,3.41 µM
CC1=C2C(=O)c3ccccc3C2=C(C)S(=O)(=O)O1,TGI,UACC-62 melanoma,> 10 µM
same,TGI,SK-OV-3 ovarian,> 10 µM
same,TGI,IGROV1 ovarian,> 10 µM
same,TGI,SR leukemia,> 10 µM
same,TGI,SNB-75 CNS,> 10 µM
same,TGI,NCI/ADR-RES ovarian,> 10 µM
same,TGI,MOLT-4 leukemia,> 10 µM
same,TGI,RXF 393 renal,> 10 µM
same,TGI,COLO 205 colon,> 10 µM
same,TGI,SF-268 CNS,> 10 µM
same,TGI,NCI-H23 lung,> 10 µM
same,TGI,786-0 renal,> 10 µM
same,TGI,OVCAR-4 ovarian,> 10 µM
same,TGI,MDA-MB-435,> 10 µM
same,TGI,RPMI-8226 leukemia,> 10 µM
same,TGI,HL-60(TB) leukemia,> 10 µM
same,TGI,MCF7 breast,> 10 µM
same,TGI,M14 melanoma,> 10 µM
same,TGI,CCRF-CEM leukemia,> 10 µM
same,TGI,MALME-3M melanoma,> 10 µM
same,TGI,NCI-H460 lung,> 10 µM
same,TGI,SW-620 colon,> 10 µM
same,TGI,U251 CNS,> 10 µM
same,TGI,ACHN renal,> 10 µM
same,TGI,CAKI-1 renal,> 10 µM
same,TGI,SK-MEL-28 melanoma,> 10 µM
same,TGI,A549 NSCLC,> 10 µM
same,TGI,SK-MEL-2 melanoma,> 10 µM
same,TGI,OVCAR-5 ovarian,> 10 µM
same,TGI,K-562 leukemia,> 10 µM
same,TGI,HOP-62 NSCLC,> 10 µM
same,TGI,T-47D breast,> 10 µM
same,TGI,SK-MEL-5 melanoma,> 10 µM
CC(C)c1ccc(C(=O)Nc2sc3c(CN(C)C)c(O)ccc3c2C(N)=O)cc1,GI50,KM12 colon,0.728 µM
same,TGI,KM12 colon,> 100 µM
same,GI50,SK-OV-3 ovarian,6.72 µM
same,TGI,SK-OV-3 ovarian,> 100 µM
same,GI50,IGROV1 ovarian,2.02 µM
same,TGI,IGROV1 ovarian,> 100 µM
same,GI50,SR leukemia,2.89 µM
same,TGI,SR leukemia,8.79 µM
same,GI50,SNB-75 CNS,2.09 µM
same,TGI,SNB-75 CNS,> 100 µM
same,GI50,NCI/ADR-RES ovarian,2.64 µM
same,TGI,NCI/ADR-RES ovarian,> 100 µM
same,GI50,MOLT-4 leukemia,2.32 µM
same,TGI,MOLT-4 leukemia,8.51 µM
same,GI50,HOP-92 NSCLC,3.48 µM
same,TGI,HOP-92 NSCLC,> 100 µM
same,GI50,EKVX NSCLC,6.28 µM
same,TGI,EKVX NSCLC,> 100 µM
same,GI50,SNB-19 CNS,3.23 µM
same,TGI,SNB-19 CNS,> 100 µM
same,GI50,HL-60(TB) leukemia,1.74 µM
same,TGI,HL-60(TB) leukemia,4.38 µM
same,GI50,CCRF-CEM leukemia,2.2 µM
same,TGI,CCRF-CEM leukemia,9.37 µM
same,GI50,PC-3 prostate,2.55 µM
same,TGI,PC-3 prostate,> 100 µM
same,GI50,SN12C renal,2.2 µM
same,TGI,SN12C renal,> 100 µM
same,GI50,OVCAR-5 ovarian,2.66 µM
same,TGI,OVCAR-5 ovarian,> 100 µM
same,GI50,MDA-MB-231 breast,3.27 µM
same,TGI,MDA-MB-231 breast,> 100 µM
same,GI50,K-562 leukemia,0.409 µM
same,TGI,K-562 leukemia,4.55 µM
same,GI50,OVCAR-8 ovarian,3.07 µM
same,TGI,OVCAR-8 ovarian,> 100 µM
